# Laboratory results: patent US5869699A, “1,2 chemiluminescent dioxetanes of improved performance” (Tropix, Inc., priority 1997, dated 1999)
# Structures can show the parent of a compound that is named as a salt.
# Assays:
# Alkaline phosphatase [1] = experiment: Chemiluminescence half-life of dephosphorylated dioxetane; assay type: biochemical; details: for t1/2 (chemiluminescence half-life): in a buffer solution; for T1/2 (chemiluminescence half-life): 0.004 mM dioxetane, 30° C., 0.1M diethanolamine, 1 mM MgCl2, pH 10, alkaline phosphatase 1.05×10^-9 M, no enhancer; for T1/2 (chemiluminescence half-life), with Sapphire II enhancer: Sapphire II enhancer: 0.1M diethanolamine, 1 mM MgCl2, 10% polyvinylbenzyltributyl ammonium chloride at 1 mg/mL
# Method: Determination of the Chemiluminescence Half-Life of Dephosphorylated Dioxetane.
# A 1 mL aliquot of each dioxetane (0.004 mM) was equilibrated to 30° C. in 0.1M diethanolamine, 1 mM MgCl2, pH 10. Alkaline phosphatase (at final concentration of 1.05×10^-9 M) was added to the test tube and the chemiluminescent signal kinetics was measured in a Turner TD-20E luminometer for 10 to 20 minutes. The half-life was calculated from the plot of log RLU versus time. For TFE and TFE-ADP-Star, the chemiluminescent half-life was also determined in the presence of Sapphire II enhancer (in 0.1M diethanolamine, 1 mM MgCl2, 10% polyvinylbenzyltributyl ammonium chloride at 1 mg/mL).
# Alkaline phosphatase [2] = experiment: Peak light intensity of dephosphorylated dioxetanes; assay type: biochemical; details: for PEAK INTENSITY: 0.004 mM dioxetane, 30° C., 0.1M diethanolamine, 1 mM MgCl2, pH 10, alkaline phosphatase 1.05×10^-9 M
# Method: Determination of the Peak Light Intensity of Dephosphorylated Dioxetanes
# A 0.5 mL aliquot of dioxetane (0.004 mM) was equilibrated to 30° C. in 0.1M diethanolamine, 1 mM MgCl2, pH 10. Alkaline phosphatase (final concentration of 1.05×10^-9 M) was added to the tube and the chemiluminescent signal was measured in a Turner TD-20E luminometer for 10 to 20 minutes.
# [3] = tested on: biotinylated pBR322(35 mer); experiment: Detection of biotinylated pBR322 (35 mer) on nylon membrane; details: for DNA CONC. (detection sensitivity): 5 minute exposure, 0.25 mM dioxetane, nylon membrane, pH 9.5 for CSPD and TFE, pH 9.0 for CDP-Star and TFE-ADP-Star
# Excerpt: Detection of Biotinylated pBR322(35 mer) on Nylon Membrane
# Serial dilutions of biotinylated pBR322 (35 mer) were spotted onto strips of Tropilon-Plus nylon membrane. Spots correspond to 210 pg, 70 pg, 23.3 pg, 7.7 pg, 2.6 pg, 0.86 pg, 0.29 pg, 0.10 pg, 32.0 fg, 10.7 fg, 3.6 fg and 1.2 fg of biotinylated pBR322(35 mer). After spotting, the DNA was cross-linked to the membrane by UV fixation, the membranes were blocked with 0.2% I-Block, 5% sodium dodecyl sulfate (SDS) in phosphate buffered saline(PBS) (Blocking Buffer I), incubated with a 1-5000 dilution of Avidx-AP in Blocking Buffer I for 30 minutes, washed twice with 5% SDS in PBS for 5 minutes, rinsed twice with Assay Buffer, incubated for 5 minutes in 0.25 mM dioxetane phosphate in Assay Buffer and exposed to X-ray film for 5 minutes. The membrane strips incubated with CSPD, and TFE were rinsed with 0.1M diethanolamine, 1 mM MgCl2, pH 9.5 and those incubated with CDP-Star, and TFE-ADP-Star were rinsed with the same buffer at pH 9.0. The Assay Buffer for CSPD and TFE was 0.1M diethanolamine, 1 mM MgCl2, pH 9.5 and for CD-Star, and TFE-ADP-Star was the same buffer at pH 9.0.
# Alkaline phosphatase [4] = experiment: Enzymatic triggering of the prepared dioxetane with alkaline phosphatase to produce light; assay type: biochemical
# Method: 480 milligrams of chromatographed disodium 2-chloro-5-(2,2,2-trifluoroethoxy tricyclo[3.3.1.1^3,7 ]dec-2-ylidenemethyl)phenyl phosphate was placed in a tube and wet down with anhydrous methanol, 4 mL. Chloroform, 40 mL, was added to obtain a solution. A solution of tetraphenylporphine (TPP), 6 milligrams in 3 mL chloroform, was then added to yield a pink-purple reaction mixture. The solution was cooled in an ice bath while sparging with oxygen through a Pasteur pipette for 5 minutes. The gas flow was continued while the solution was irradiated with a 400 watt sodium vapor lamp which had been filtered with a 3.0 mil thickness of DuPont Kapton film. After 40 minutes, a small sample was blown down and dissolved in water which contained 0.1% NaHCO3. Analytical HPLC, under conditions described above for the starting material, indicated a new product which eluted at 12.1 minutes. The starting material, eluting at 12.5 minutes, was present in just a trace amount. The reaction was stripped of solvents and pumped to yield a dark red foam. This was dissolved in 80 mL water which contained 5 drops of 0.5M NaOH. The solution was filtered to remove insolubles, and was preparatively chromatographed on a one inch PLRP-S column (Polymer Laboratories) using an acetonitrile/water gradient. The product peak was shaved on the front and in the back, collecting only the middle cut. […]
# [5] = nylon membrane blotting, TABLE III
SMILES,T1/2 (chemiluminescence half-life) (Alkaline phosphatase [1]) [min],PEAK INTENSITY (Alkaline phosphatase [2]) [RLU],DNA CONC. (detection sensitivity) [3] [PICOGRAMS],further results
"COC1(c2cccc(OP(=O)(O)O)c2)OOC12C1CC3CC(C1)CC2C3 (stereo not shown) [AMPPD, 3-(2'-spiroadamantane)-4-methoxy-4-(3""-phosphoryloxy)-phenyl-1,2-dioxetanedisodium salt]",–,–,–,t1/2 (chemiluminescence half-life) (Alkaline phosphatase [1]): 2.1 min
COC1(c2cccc(OP(=O)(O)O)c2)OOC12C1CC3CC2CC(Cl)(C3)C1 (stereo not shown) [CSPD],0.6,200,23.3,half-life compared with TFE (Alkaline phosphatase [1]; by itself in a buffer): shorter than TFE
O=P(O)(O)Oc1cccc(C2(OCC(F)(F)F)OOC23C2CC4CC(C2)CC3C4)c1 (stereo not shown) [TFE],0.9,282,7.7,"T1/2 (chemiluminescence half-life), with Sapphire II enhancer (Alkaline phosphatase [1]): 15.5 min; t1/2 (chemiluminescence half-life) (Alkaline phosphatase [1]): 0.9 min; t1/2 in the presence of enhancers (Alkaline phosphatase [1]; in the presence of enhancers): 15 min"
COC1(c2ccc(Cl)c(OP(=O)(O)O)c2)OOC12C1CC3CC2CC(Cl)(C3)C1 (stereo not shown) [CDP-Star],1.2,863,0.86,–
"O=P([O-])([O-])Oc1cccc(C2(OCC(F)(F)F)OOC23C2CC4CC3CC(Cl)(C4)C2)c1.[Na+].[Na+] (stereo not shown) [TFE-CDP-Star, Disodium 3-(4-(2,2,2-trifluoroethoxy)spiro{1,2-dioxetane-3,2'-(5'-chloro)tricyclo [3.3.1,1^3,7]decan}-4-yl)phenyl phosphate]",–,–,–,"duration of burst of light on addition of excess alkaline phosphatase (Alkaline phosphatase [4]; HPLC peak of basified reaction sample, pH 10 aqueous diethanolamine buffer, excess alkaline phosphatase): 3 min"
COC1(c2ccc(Cl)c(OP(=O)(O)O)c2)OOC12C1CC3CC(C1)CC2C3 (stereo not shown) [ADP-Star],2.7,682,–,–
"O=P(O)(O)Oc1cc(C2(OCC(F)(F)F)OOC23C2CC4CC(C2)CC3C4)ccc1Cl (stereo not shown) [TFE-ADP-Star, Disodium 2-chloro-5-(4-(2,2,2-trifluoroethoxy)spiro{1,2-dioxetane-3,2'-tricyclo[3.3.1.1^3,7]decan}-4-yl-phenyl phosphate]",2.0,390,0.0107,"T1/2 (chemiluminescence half-life), with Sapphire II enhancer (Alkaline phosphatase [1]): 5.0 min; light production on enzymatic triggering with alkaline phosphatase (Alkaline phosphatase [4]): produce light; chemiluminescent signal intensity / relative emission efficiency (Alkaline phosphatase [2]; comment on TABLE II): generates a higher intensity signal; amount of DNA detected relative to TFE [3, 5]: close to one thousand times less DNA than TFE; sensitivity compared with CDP-Star [3, 5]: more sensitive than CDP-Star"
